Test results published in patent publication US20080145858A1, “DETECTION AND IDENTIFICATION OF TOXICANTS BY MEASUREMENT OF GENE […]” (priority 2003, published 2008).

Tested on: Xenopus laevis cleavage stage embryos (stage 8)
Assay: Xenopus cDNA microarray, differential gene expression after PMA treatment during cleavage stage (Group I)
Format: in vivo
Conditions: PMA 100 ng/ml, stage 8
From the text: Specifically, the method and screen of the present invention function as follows. EST clones produced from Xenopus laevis unfertilized eggs were used in the present study with ˜1,200 EST clones from a 18,500 EST clone set selected for production of a Xenopus cDNA microarray. The Xenopus microarray was used to measure the effect of chemical treatment on Xenopus embryo gene regulation. The chemical treatment was a phorbol ester, PMA. Xenopus eggs were obtained from females induced for ovulation and fertilized in vitro. Control Xenopus laevis embryos were allowed to develop to stage 8 blastula or stage 15 neurula. Treated embryos were exposed to PMA during cleavage stage or during neurulation with end points of blastula (stage 8) or neurula (stage 15). Specifically, PMA 100 ng/ml was added to the incubation media during cleavage stages for evaluation in stage 8 embryo or PMA was added during neural induction for evaluation in stage 15 embryos. RNA extracted from the embryos was used to generate fluorescent cDNA probes for Xenopus microarray analyses to measure differential gene expression with and without the phorbol ester treatment. Analysis was performed using paired RNA samples to compare PMA-treated and untreated embryos: Group I measured the effects of PMA-treatment during the cleavage stage in stage 8 embryos and Group II measured the effects of PMA-treatment during neurulation in stage 15 embryos. Group III measured the change in gene expression between stage 8 and stage 15 embryos.
cDNA fragments were obtained by PCR replication of Xenopus laevis unfertilized egg cDNA inserts, purified, quantitated and loaded onto glass chips by robotics. In addition to the selected ˜1,200 genes, 64 lambda Q gene, an internal control cDNA (Genomic Solutions, Inc., Ann Arbor, Mich.) was loaded on the chip. The insert DNA from ˜1,200 clones were PCR amplified using forward and reverse primers (GF.200 primers, Research Genetics, Huntsville, Ala.). A second PCR was carried out using 1 μl of the primary PCR (20 μl) for template. Excess dNTPs, polymerase and other PCR artifacts were removed from the secondary PCR reactions using Millipore Multiscreen plates (Millipore Corporation, Bedford, Mass.) using the standard protocol. The purity of the PCR products was assessed by electrophoresis and documented using an Alphalmager 1000 Digital Imaging System (Alpha Innotech Corporation, San Leandro, Calif.). The DNA obtained by PCR was quantitated using PicoGreen (Molecular Probes, Eugene, Oreg.). The DNA was denatured and arrayed onto amino-silane coated microscope slides (CMT-GAPS coated slides, Corning, Corning, N.Y.) using a Flexys robotic workstation (Genomic Solutions Inc.). The ˜1,200 PCR products were arrayed in duplicate on each slide and cross-linked. Each gene chip contained duplicate cDNA samples.
Total RNA was prepared from embryos treated in three separate dishes per treatment group that were pooled. Total RNA was isolated from the frog embryos (1,200 embryos for each probe production) using TRIzol extraction (Gibco BRL, Grand Island, N.Y.) and Qiagen RNeasy kits (Qiagen, Valencia, Calif.). The ethanol precipitated RNA was resuspended in RNase-free water, quantitated with RiboGreen (Molecular Probes, Eugene, Oreg.). Total RNA was further purified using oligoTex mRNA maxi kit (Qiagen Co.) with the bound mRNA eluted with minimum volume of elution buffer and precipitated with ethanol. The recovery rate of mRNA by the ethanol precipitation method was ˜70%. Cy3- or Cy5-tagged probes were produced from an mRNA mixture (20 μl) of Xenopus mRNA (5 μg) and lambda Q gene mRNA (3.5 ng) reverse-transcribed with oligo(dT)18-22 primer and dNTPs and the reverse-transcribed cDNA was cross-linked with Cy3 or Cy5 as described in Clontech Atlas™ Glass Fluorescent Labeling kit manual (www.clontech.com). After hydrolysis of the RNA and purification of the probe (Centricon 50, Millipore, Bedford, Mass.), the cDNA in TE buffer was quantitated by absorbance at 260 nm. […]

`CCCCCCCCCCCCCC(=O)O[C@@H]1[C@@H](C)[C@@]2(O)[C@@H](C=C(CO)C[C@]3(O)C(=O)C(C)=C[C@@H]23)[C@@H]2C(C)(C)[C@]12OC(C)=O` [PMA, phorbol 12-myristate 12-acetate] was tested, and the “Ratio of Medians (Cy5/Cy3) Mean” value (PBX0138A04 mRNA) was 2.99 ± 1.32, the “Ratio of Medians (Cy5/Cy3) Second Spot” value (PBX0138A04 mRNA) was 4.33 and the “(CY3/CY5) by Landmarks (1.6)” value (PBX0138C12 mRNA) was 3.59. For the same compound, the “(CY3/CY5) by all Data Points (1.3)” value (PBX0138C12 mRNA) was 5.74, the “Normalization by Landmarks (1.6)” value (PBX0138C12 mRNA) was 0.28 and the “Normalization by all Data Points (1.3)” value (PBX0138C12 mRNA) was 0.17. The “Ratio of Medians (Cy5/Cy3) First Spot” value (PBX0138C12 mRNA) was 0.14, the “Ratio of Medians (Cy5/Cy3) Mean” value (PBX0138C12 mRNA) was 0.13 ± 0.01 and the “Ratio of Medians (Cy5/Cy3) Second Spot” value (PBX0138C12 mRNA) was 0.13. The “Normalized by Landmarks (1.59)” value (PBX0138D01 mRNA) was 4.45, the “Normalized by all Data Points (1.28)” value (PBX0138D01 mRNA) was 3.58 and the “Ratio of Medians (Cy5/Cy3) First Spot” value (PBX0138D01 mRNA) was 3.50. The “Ratio of Medians (Cy5/Cy3) Mean” value (PBX0138D01 mRNA) was 2.80 ± 0.70, the “Ratio of Medians (Cy5/Cy3) Second Spot” value (PBX0138D01 mRNA) was 2.10 and the “(CY3/CY5) by Landmarks (1.6)” value (PBX0138E10 mRNA) was 2.68. The “(CY3/CY5) by all Data Points (1.3)” value (PBX0138E10 mRNA) was 4.29, the “Normalization by Landmarks (1.6)” value (PBX0138E10 mRNA) was 0.37 and the “Normalization by all Data Points (1.3)” value (PBX0138E10 mRNA) was 0.23. For the same compound, the “Ratio of Medians (Cy5/Cy3) First Spot” value (PBX0138E10 mRNA) was 0.15, the “Ratio of Medians (Cy5/Cy3) Mean” value (PBX0138E10 mRNA) was 0.18 ± 0.03 and the “Ratio of Medians (Cy5/Cy3) Second Spot” value (PBX0138E10 mRNA) was 0.21. For the same compound, the “(CY3/CY5) by Landmarks (1.6)” value (PBX0138G10 mRNA) was 3.35, the “(CY3/CY5) by all Data Points (1.3)” value (PBX0138G10 mRNA) was 5.36 and the “Normalization by Landmarks (1.6)” value (PBX0138G10 mRNA) was 0.30. The “Normalization by all Data Points (1.3)” value (PBX0138G10 mRNA) was 0.19, the “Ratio of Medians (Cy5/Cy3) First Spot” value (PBX0138G10 mRNA) was 0.10 and the “Ratio of Medians (Cy5/Cy3) Mean” value (PBX0138G10 mRNA) was 0.14 ± 0.04. The “Ratio of Medians (Cy5/Cy3) Second Spot” value (PBX0138G10 mRNA) was 0.18, the “(CY3/CY5) by Landmarks (1.6)” value (PBX0138G12 mRNA) was 2.56 and the “(CY3/CY5) by all Data Points (1.3)” value (PBX0138G12 mRNA) was 4.09. The “Normalization by Landmarks (1.6)” value (PBX0138G12 mRNA) was 0.39, the “Normalization by all Data Points (1.3)” value (PBX0138G12 mRNA) was 0.24 and the “Ratio of Medians (Cy5/Cy3) First Spot” value (PBX0138G12 mRNA) was 0.17. The “Ratio of Medians (Cy5/Cy3) Mean” value (PBX0138G12 mRNA) was 0.19 ± 0.02, the “Ratio of Medians (Cy5/Cy3) Second Spot” value (PBX0138G12 mRNA) was 0.21 and the “Normalized by Landmarks (1.59)” value (PBX0139A08 mRNA) was 4.21. The “Normalized by all Data Points (1.28)” value (PBX0139A08 mRNA) was 3.39, the “Ratio of Medians (Cy5/Cy3) First Spot” value (PBX0139A08 mRNA) was 2.00 and the “Ratio of Medians (Cy5/Cy3) Mean” value (PBX0139A08 mRNA) was 2.65 ± 0.65. The “Ratio of Medians (Cy5/Cy3) Second Spot” value (PBX0139A08 mRNA) was 3.29, the “Normalized by Landmarks (1.59)” value (PBX0139B06 mRNA) was 5.45 and the “Normalized by all Data Points (1.28)” value (PBX0139B06 mRNA) was 4.39. For the same compound, the “Ratio of Medians (Cy5/Cy3) First Spot” value (PBX0139B06 mRNA) was 4.00, the “Ratio of Medians (Cy5/Cy3) Mean” value (PBX0139B06 mRNA) was 3.43 ± 0.57 and the “Ratio of Medians (Cy5/Cy3) Second Spot” value (PBX0139B06 mRNA) was 2.86. For the same compound, the “(CY3/CY5) by Landmarks (1.6)” value (PBX0139D03 mRNA) was 3.15, the “(CY3/CY5) by all Data Points (1.3)” value (PBX0139D03 mRNA) was 5.04 and the “Normalization by Landmarks (1.6)” value (PBX0139D03 mRNA) was 0.32. For the same compound, the “Normalization by all Data Points (1.3)” value (PBX0139D03 mRNA) was 0.20, the “Ratio of Medians (Cy5/Cy3) First Spot” value (PBX0139D03 mRNA) was 0.04 and the “Ratio of Medians (Cy5/Cy3) Mean” value (PBX0139D03 mRNA) was 0.15 ± 0.11. The “Ratio of Medians (Cy5/Cy3) Second Spot” value (PBX0139D03 mRNA) was 0.26, the “(CY3/CY5) by Landmarks (1.6)” value (PBX0139F05 mRNA) was 3.52 and the “(CY3/CY5) by all Data Points (1.3)” value (PBX0139F05 mRNA) was 5.64. The “Normalization by Landmarks (1.6)” value (PBX0139F05 mRNA) was 0.28, the “Normalization by all Data Points (1.3)” value (PBX0139F05 mRNA) was 0.18 and the “Ratio of Medians (Cy5/Cy3) First Spot” value (PBX0139F05 mRNA) was 0.15. For the same compound, the “Ratio of Medians (Cy5/Cy3) Mean” value (PBX0139F05 mRNA) was 0.14 ± 0.02, the “Ratio of Medians (Cy5/Cy3) Second Spot” value (PBX0139F05 mRNA) was 0.12 and the “(CY3/CY5) by Landmarks (1.6)” value (PBX0139F12 mRNA) was 2.63. The “(CY3/CY5) by all Data Points (1.3)” value (PBX0139F12 mRNA) was 4.21, the “Normalization by Landmarks (1.6)” value (PBX0139F12 mRNA) was 0.38 and the “Normalization by all Data Points (1.3)” value (PBX0139F12 mRNA) was 0.24. The “Ratio of Medians (Cy5/Cy3) First Spot” value (PBX0139F12 mRNA) was 0.20, the “Ratio of Medians (Cy5/Cy3) Mean” value (PBX0139F12 mRNA) was 0.18 ± 0.02 and the “Ratio of Medians (Cy5/Cy3) Second Spot” value (PBX0139F12 mRNA) was 0.16. The “(CY3/CY5) by Landmarks (1.6)” value (PBX0139H03 mRNA) was 2.11, the “(CY3/CY5) by all Data Points (1.3)” value (PBX0139H03 mRNA) was 3.38 and the “Normalization by Landmarks (1.6)” value (PBX0139H03 mRNA) was 0.47. For the same compound, the “Normalization by all Data Points (1.3)” value (PBX0139H03 mRNA) was 0.30, the “Ratio of Medians (Cy5/Cy3) First Spot” value (PBX0139H03 mRNA) was 0.26 and the “Ratio of Medians (Cy5/Cy3) Mean” value (PBX0139H03 mRNA) was 0.23 ± 0.03. The “Ratio of Medians (Cy5/Cy3) Second Spot” value (PBX0139H03 mRNA) was 0.20.
